Read-outs that look alike come from different tables or passages of the source. Square brackets hold non-standard residues; d marks the D form. Peptide text beside a SMILES is read from it. 2Pal = N[C@@H](Cc1ccccn1)C(=O)O; 3Pal = N[C@@H](Cc1cccnc1)C(=O)O; 4Pal = N[C@@H](Cc1ccncc1)C(=O)O

Data set [1] deals with T1, δOR (Homo sapiens, UniProt P41143). Conditions: cited from earlier work.
The target of data set [2] is T1, δOR. Conditions: cited from earlier work. This is another data set of the same source.
Data set [3] addresses T1, δOR. Conditions: at best; cited from earlier work.
Data set [4] concerns the target T2, FLAG-mouse δOR (Mus musculus, UniProt P32300).
T2 construct: FLAG; expressed in transfected cells; host or cells: HEK 293
The data set is described as follows: cAMP GloSensor inhibition assay in HEK 293 cells. The class given is cell-based. Conditions: for IC50: HEK 293, forskolin 30 µM, read-out: cAMP IC50 (nM) δOR; for G Protein Selectivity (δOR vs µOR): cAMP potency δOR vs µOR.
Method: (§2) In brief, for cAMP inhibition assays HEK 293 (Life Technologies, Grand Island, NY, USA) cells were transiently transfected in a 1:3 ratio with FLAG-mouse δOR, or HA-mouse µOR and pGloSensor22F-cAMP plasmids (Promega, Madison, WI, USA) using Xtremegene9 (Sigma). Two days post-transfection cells (20,000 cells/well, 7.5 µL) were seeded in low volume Greiner 384-well plates (#82051-458, VWR, Batavia, IL, USA) and were incubated with Glosensor reagent (Promega, 7.5 µL, 2% final concentration) for 90 min at room temperature. […] For β-arrestin recruitment assays, CHO-human µOR PathHunter β-arrestin 2 cells or CHO-human δOR PathHunter β-arrestin 2 cells (DiscoverX, Fremont, CA, USA) were plated (2,500 cells/well, 10 µL) one day prior to stimulation with 2.5 µL drug solution for 90 min at 37 °C/5% CO2, after which cells were incubated with 6 µL cell PathHunter assay buffer (DiscoverX) for 60 min at room temperature as per the manufacturer’s protocol. Luminescence for each of these assays was measured using a FlexStation3 plate reader (Molecular Devices, Sunnyvale, CA, USA).
(§3) All data are presented as means ± standard error of the mean, and analysis was performed using GraphPad Prism 8 software (GraphPad Software, La Jolla, CA). For in vitro assays, nonlinear regression was conducted to determine pIC50 (cAMP) or pEC50 (β-arrestin 2 recruitment). […] The averages of each independent run were counted as a single experiment and combined to provide a composite curve in favor of providing a ‘representative’ curve. In each experimental run, a positive control/reference compound was utilized to allow the data to be normalized and to calculate the log bias value. A minimum of three independent values were obtained for each compound in each of the cellular assays.

Data set [5] concerns the target T1, δOR. The data set can be described thus: PathHunter β-arrestin 2 recruitment assay in CHO cells. On the technique in general: Arrestin recruitment assays detect the binding of arrestin to an activated receptor.
Method: as §2, §3
In data set [6] the target is T1, δOR. The data set can be described thus: Competition radioligand binding, [3H]DPDPE. Conditions: for Binding Selectivity (δOR vs µOR): ratio of Ki values. On the procedure:
(§1) Next, 100 µL of membrane suspension containing 7 µg protein was added to the agonist wells and incubated for 90 min at room temperature. The reaction mixture was then filtered over a GF-B filter plate (Perkin Elmer) followed by four quick washes with ice-cold 50 mM Tris HCl. The plate was dried overnight, after which 50 µL scintillation fluid (Ultimagold uLLT) was added and radioactivity was counted on a Packard TopCount NXT scintillation counter. All working solutions were prepared in a radioligand assay buffer containing 50 mM Tris HCl, 10 mM MgCl2, and 1 mM ethylenediaminetetraacetic acid at pH 7.4.

Data set [7] concerns the target T3, HA-mouse µOR (Mus musculus, UniProt P42866).
T3 construct: HA; expressed in transfected cells; host or cells: HEK 293
The data set can be described thus: cAMP GloSensor inhibition assay in HEK 293 cells. The class given is cell-based. Conditions: HEK 293, forskolin 30 µM; read-out: cAMP IC50 (nM) µOR.
Method: as §2, §3

Data set [8] deals with T4, µOR (Homo sapiens, UniProt P35372). The data set can be described thus: cell-based. Conditions: CHO PathHunter; read-out: β-Arrestin 2 EC50 (nM) µOR. The class given is cell-based.
T4 sequence (P35372 whole entry): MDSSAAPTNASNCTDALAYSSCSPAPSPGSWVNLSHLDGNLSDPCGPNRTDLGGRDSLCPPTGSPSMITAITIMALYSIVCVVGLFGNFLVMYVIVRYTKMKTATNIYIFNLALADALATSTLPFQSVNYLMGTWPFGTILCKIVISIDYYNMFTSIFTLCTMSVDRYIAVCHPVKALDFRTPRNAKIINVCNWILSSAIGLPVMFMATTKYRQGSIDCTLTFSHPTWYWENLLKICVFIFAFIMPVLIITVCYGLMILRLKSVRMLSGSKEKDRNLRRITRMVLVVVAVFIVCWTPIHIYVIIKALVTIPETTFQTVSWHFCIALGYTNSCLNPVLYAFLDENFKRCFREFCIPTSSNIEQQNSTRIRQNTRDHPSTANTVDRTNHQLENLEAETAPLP
Method: as §2, §3
For data set [9], the target named is T4, µOR. The data set can be described thus: Competition radioligand binding, [3H]DAMGO. On the procedure: as §1
Data set [10] in a line: Rat plasma stability. Conditions: for Degradation Products (First Appearance): rat plasma, UPLC-mass spectrometry, time of first appearance in parentheses; for half-life: rat, plasma. On the procedure: Peptides were synthesized using an Aapptec Focus XC automated peptide synthesizer coupled with a heating system using a solid phase peptide synthesis protocol using Fmoc chemistry. Preparative RP-HPLC was performed using an appropriate column and solvent system (described below) and final purity of peptides was determined by UV area % from UPLC analysis. Peptides were purified by Teledyne ISCO EZ Prep system on RediSep® C18 Prep column (30 × 250 mm, 100 Å). […] Plasma stability was also assessed using the above UPLC column and solvent gradient program using a Waters H class Plus Acquity UPLC system coupled with a QDa detector using protocol B.
Sprague Dawley rat plasma containing K2-ethylenediaminetetraacetic acid (Innovative Research, MI, USA) was transferred into 300 µL aliquots and stored at −20 °C until use. […] After adding analog, an aliquot of the mixture was removed at each indicated time point (0, 5, 10, 15, 20, 30, 60, 120, 240 min) and immediately quenched with 100 μL of a methanol solution containing 20 μM Fmoc-Leu-OH as an internal standard. […] Then, the filtrate was transferred into vials and a 5 μL sample of the resulting solution was analyzed on an UPLC system coupled with a QDa detector. […] Determination of half-life (t1/2) was carried out by using the GraphPad Prism one-phase decay method.

In data set [11] the target is T4, µOR. Conditions: BRET (β-arrestin 2) and EPAC (cAMP) assays; footnote prints reference 26; cited from earlier work. (In general: In BRET a luciferase serves as donor, and the signal depends on an acceptor being close.)
Data set [12] addresses T1, δOR. Conditions: literature value; cited from earlier work.

T2 sequence (P32300 whole entry): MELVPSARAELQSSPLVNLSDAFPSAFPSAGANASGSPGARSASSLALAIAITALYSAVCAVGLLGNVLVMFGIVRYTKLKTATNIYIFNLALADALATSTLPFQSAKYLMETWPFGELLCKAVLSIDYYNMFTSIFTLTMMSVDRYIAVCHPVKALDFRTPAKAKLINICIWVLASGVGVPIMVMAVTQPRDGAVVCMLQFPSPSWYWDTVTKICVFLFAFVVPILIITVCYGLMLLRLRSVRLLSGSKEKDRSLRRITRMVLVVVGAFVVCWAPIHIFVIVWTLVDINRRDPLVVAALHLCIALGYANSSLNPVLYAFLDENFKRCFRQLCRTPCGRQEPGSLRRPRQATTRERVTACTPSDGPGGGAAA
T3 sequence (P42866 whole entry): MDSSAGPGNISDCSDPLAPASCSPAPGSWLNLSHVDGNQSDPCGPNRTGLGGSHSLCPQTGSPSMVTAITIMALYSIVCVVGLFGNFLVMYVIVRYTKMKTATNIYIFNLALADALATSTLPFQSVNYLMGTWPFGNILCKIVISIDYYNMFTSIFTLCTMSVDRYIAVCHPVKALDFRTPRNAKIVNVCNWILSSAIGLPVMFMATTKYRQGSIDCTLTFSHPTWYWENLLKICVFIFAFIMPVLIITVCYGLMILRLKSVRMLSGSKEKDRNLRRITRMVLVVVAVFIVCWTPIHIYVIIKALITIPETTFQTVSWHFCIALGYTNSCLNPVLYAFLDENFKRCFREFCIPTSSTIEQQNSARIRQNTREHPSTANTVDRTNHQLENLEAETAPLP
T1 sequence (P41143 whole entry): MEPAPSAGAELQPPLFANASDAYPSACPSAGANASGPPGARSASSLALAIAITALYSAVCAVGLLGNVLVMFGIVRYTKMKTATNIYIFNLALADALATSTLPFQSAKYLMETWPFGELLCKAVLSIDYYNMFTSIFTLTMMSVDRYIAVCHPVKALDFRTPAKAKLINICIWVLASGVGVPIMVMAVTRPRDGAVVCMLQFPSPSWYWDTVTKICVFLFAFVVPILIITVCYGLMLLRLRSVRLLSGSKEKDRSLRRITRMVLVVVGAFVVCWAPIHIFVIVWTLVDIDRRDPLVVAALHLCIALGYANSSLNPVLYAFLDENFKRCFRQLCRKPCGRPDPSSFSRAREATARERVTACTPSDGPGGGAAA

Consider rubiscolin-6, for which, in data set [1], the “β-arrestin 2 efficacy” value is given as 20%. In data set [2] (literature value), the “Bias Factor δOR” value is recorded as 2.0.

Dmt-Tic-Gly-NH-Ph: the “selectivity for δORs over µORs” value in [3] is at most 10 fold.

Broadly, the IC50 is the midpoint of a concentration-inhibition curve. A word on the EC50: it is the concentration that produces a half-maximal response. As usually defined, the Ki is a measure of affinity in units of concentration, obtained from inhibition or displacement. As a reminder, the half-life is the time in which the quantity being followed falls by half. As to `CC(C)C[C@H](NC(=O)[C@H](Cc1ccncc1)NC(=O)CNC(=O)CNC(=O)[C@@H](N)Cc1ccc(O)cc1)C(=O)O` [Compound 1l] (H-YGG[4Pal]L-OH; N-terminus and C-terminus assumed), in [4], the IC50 turned out to be 30.2 nM and the “G Protein Selectivity (δOR vs µOR)” value amounted to 10. In addition, the midpoint of the response in [5], the EC50, lay at 0.398 µM. Also, in [6], the inhibition constant Ki worked out at 0.0204 µM and the “Binding Selectivity (δOR vs µOR)” value was determined as 1.9. In addition, the IC50 in [7] was 302 nM. The EC50 in data set [8] is 37200 nM. Also, in data set [9], the Ki came out at 0.0389 µM. Also, in [10], the “Degradation Products (First Appearance)” value is listed as “(4-pyridyl)Ala-Leu (10 min) Gly-Gly-(4-pyridyl)Ala-Leu (30 min)” and the half-life turned out to be 78.1 min.

As for `CC(C)C[C@H](NC(=O)[C@H](Cc1cccnc1)NC(=O)CNC(=O)CNC(=O)[C@@H](N)Cc1ccc(O)cc1)C(=O)O` [Compound 1k] (H-YGG[3Pal]L-OH; N-terminus and C-terminus assumed), in [4], the IC50 is 47.9 nM and the “G Protein Selectivity (δOR vs µOR)” value is 4.9. Moreover, in data set [5], the EC50 worked out at 1.12 µM. Besides, in [6], the Ki stood at 0.0331 µM and the “Binding Selectivity (δOR vs µOR)” value is 4.8. For the same compound, the half-maximal inhibitory concentration (IC50) in data set [7] is 234 nM. For the same compound, the EC50 in data set [8] worked out at 41700 nM. The inhibitory constant (Ki) in [9] came out at 0.158 µM. Besides, in [10], the “Degradation Products (First Appearance)” value is recorded as “(3-pyridyl)Ala-Leu (10 min) Gly-Gly-(3-pyridyl)Ala-Leu (20 min)” and the half-life stood at 54 min.

Take `CC(C)C[C@H](NC(=O)[C@H](Cc1ccccn1)NC(=O)CNC(=O)CNC(=O)[C@@H](N)Cc1ccc(O)cc1)C(=O)O` [Compound 1j] (H-YGG[2Pal]L-OH; N-terminus and C-terminus assumed): the IC50 in data set [4] turned out to be 4.57 nM; in [7] it was 40.7 nM. For the same compound, the “G Protein Selectivity (δOR vs µOR)” value in data set [4] is on record as 8.9. For the same compound, the results for the EC50 in data set [5] and in data set [8] were 0.1 µM and 1350 nM, respectively. Moreover, the values for the inhibition constant (Ki) in [6] and in data set [9] were 0.00617 µM and 0.00912 µM, respectively. For the same compound, the “Binding Selectivity (δOR vs µOR)” value in data set [6] is reported as 1.5. Further, the “Degradation Products (First Appearance)” value in data set [10] is reported as “(2-pyridyl)Ala-Leu (5 min) Gly-Gly-(2-pyridyl)Ala-Leu (30 min)”. The half-life in data set [10] turned out to be 26.8 min.

aza-β-homoleucine-enkephalin: the “selectivity for δORs over µORs” value in data set [3] is given as at most 10 fold. Also, the “Bias Factor µOR (LE = Ref)” value in data set [11] is recorded as 1.2. Also, the “G Protein Selectivity (δOR vs µOR)” value in [12] was 9.9 [23]. Further, the “β-arrestin 2 efficacy” value in data set [1] is on record as 64%. Further, the “Bias Factor δOR” value is 5.2 in data set [2] (BRET (β-arrestin 2) and EPAC (cAMP) assays, footnote prints reference 26); 5.2 ^¶ in data set [2] (BRET (β-arrestin 2) and EPAC (cAMP) assays, footnote prints reference 26, listed as Aza-β-homoleucine).

Source of the values: publication PMC6943441, “The Meta-Position of Phe^4 in Leu-Enkephalin Regulates Potency, Selectivity, Functional Activity, and Signaling Bias at the Delta and Mu Opioid Receptors” (Molecules, 2019).
